The source made the active and inactive calls. No cut-off for these calls is given here.
How the values were obtained:
Histone deacetylase 7 = target: T1, Histone deacetylase 7 (Homo sapiens, UniProt Q8WUI4)
T1 sequence (Q8WUI4 whole entry): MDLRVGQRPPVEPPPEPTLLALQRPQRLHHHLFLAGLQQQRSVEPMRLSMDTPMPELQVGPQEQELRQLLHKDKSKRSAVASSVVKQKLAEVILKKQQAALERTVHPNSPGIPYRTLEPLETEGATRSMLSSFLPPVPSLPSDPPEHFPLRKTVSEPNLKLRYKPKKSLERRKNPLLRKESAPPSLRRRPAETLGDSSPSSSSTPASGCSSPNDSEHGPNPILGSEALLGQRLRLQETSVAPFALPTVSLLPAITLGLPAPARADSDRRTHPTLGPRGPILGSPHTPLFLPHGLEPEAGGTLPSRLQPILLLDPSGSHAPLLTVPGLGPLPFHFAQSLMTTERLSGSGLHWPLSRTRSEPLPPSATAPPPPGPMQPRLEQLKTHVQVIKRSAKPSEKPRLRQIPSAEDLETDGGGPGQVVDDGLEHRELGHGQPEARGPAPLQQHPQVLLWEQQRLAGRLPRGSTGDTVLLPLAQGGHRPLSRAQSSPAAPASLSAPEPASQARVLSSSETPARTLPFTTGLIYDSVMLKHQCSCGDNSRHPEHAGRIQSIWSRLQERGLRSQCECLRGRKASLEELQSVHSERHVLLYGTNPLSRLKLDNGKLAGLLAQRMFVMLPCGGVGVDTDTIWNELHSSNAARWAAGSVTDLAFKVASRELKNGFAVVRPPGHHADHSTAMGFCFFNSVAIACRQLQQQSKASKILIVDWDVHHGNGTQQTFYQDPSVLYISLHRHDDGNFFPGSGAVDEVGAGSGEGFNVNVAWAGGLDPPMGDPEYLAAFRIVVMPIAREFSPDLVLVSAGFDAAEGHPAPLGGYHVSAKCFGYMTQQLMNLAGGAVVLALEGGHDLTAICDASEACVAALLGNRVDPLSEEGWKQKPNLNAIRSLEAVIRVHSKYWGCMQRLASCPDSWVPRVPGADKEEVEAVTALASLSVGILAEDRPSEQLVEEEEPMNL
Description: Inhibition of recombinant human HDAC7 using Ac-LGK(TFA)-AMC as substrate pre-incubated for 15 mins followed by substrate addition and measured after 60 mins by fluorescence based assay

Histone deacetylase 1 = Histone deacetylase 1 (Homo sapiens, UniProt Q13547); experiment: Inhibition of recombinant human HDAC1 using Ac-LGK(Ac)-AMC as substrate preincubated for 30 mins followed by substrate addition and measured after 90 mins by fluorescence based assay
Chain of Histone deacetylase 1 (Q13547 whole entry): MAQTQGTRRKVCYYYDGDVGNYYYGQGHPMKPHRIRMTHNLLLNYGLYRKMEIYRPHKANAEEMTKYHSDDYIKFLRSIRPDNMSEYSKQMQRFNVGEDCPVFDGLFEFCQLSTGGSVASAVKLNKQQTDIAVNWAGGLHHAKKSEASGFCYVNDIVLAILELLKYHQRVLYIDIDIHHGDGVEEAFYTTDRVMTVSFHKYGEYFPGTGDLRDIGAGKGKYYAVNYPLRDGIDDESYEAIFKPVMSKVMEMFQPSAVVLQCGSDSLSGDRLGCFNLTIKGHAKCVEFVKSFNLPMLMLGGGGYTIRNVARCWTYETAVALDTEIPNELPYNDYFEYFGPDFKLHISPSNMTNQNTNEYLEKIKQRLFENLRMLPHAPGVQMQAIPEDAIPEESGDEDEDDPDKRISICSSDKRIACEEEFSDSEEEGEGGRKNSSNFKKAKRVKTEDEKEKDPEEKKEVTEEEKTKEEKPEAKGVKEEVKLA

[1] = Metabolic stability in Sprague-Dawley rat liver microsomes assessed as half life at 5 uM preincubated for 5 mins followed by NADPH addition and measured after 60 mins by LCMS analysis; type: ADME, Microsome; conditions: time 65 min
[2] = Solubility of compound in PEG400 in PBS at 10 mg/ml; type: physicochemical
Histone deacetylase 4 = Histone deacetylase 4 (Homo sapiens, UniProt P56524); experiment: Inhibition of recombinant human HDAC4 using Ac-LGK(TFA)-AMC as substrate pre-incubated for 15 mins followed by substrate addition and measured after 60 mins by fluorescence based assay
Chain of Histone deacetylase 4 (P56524 whole entry): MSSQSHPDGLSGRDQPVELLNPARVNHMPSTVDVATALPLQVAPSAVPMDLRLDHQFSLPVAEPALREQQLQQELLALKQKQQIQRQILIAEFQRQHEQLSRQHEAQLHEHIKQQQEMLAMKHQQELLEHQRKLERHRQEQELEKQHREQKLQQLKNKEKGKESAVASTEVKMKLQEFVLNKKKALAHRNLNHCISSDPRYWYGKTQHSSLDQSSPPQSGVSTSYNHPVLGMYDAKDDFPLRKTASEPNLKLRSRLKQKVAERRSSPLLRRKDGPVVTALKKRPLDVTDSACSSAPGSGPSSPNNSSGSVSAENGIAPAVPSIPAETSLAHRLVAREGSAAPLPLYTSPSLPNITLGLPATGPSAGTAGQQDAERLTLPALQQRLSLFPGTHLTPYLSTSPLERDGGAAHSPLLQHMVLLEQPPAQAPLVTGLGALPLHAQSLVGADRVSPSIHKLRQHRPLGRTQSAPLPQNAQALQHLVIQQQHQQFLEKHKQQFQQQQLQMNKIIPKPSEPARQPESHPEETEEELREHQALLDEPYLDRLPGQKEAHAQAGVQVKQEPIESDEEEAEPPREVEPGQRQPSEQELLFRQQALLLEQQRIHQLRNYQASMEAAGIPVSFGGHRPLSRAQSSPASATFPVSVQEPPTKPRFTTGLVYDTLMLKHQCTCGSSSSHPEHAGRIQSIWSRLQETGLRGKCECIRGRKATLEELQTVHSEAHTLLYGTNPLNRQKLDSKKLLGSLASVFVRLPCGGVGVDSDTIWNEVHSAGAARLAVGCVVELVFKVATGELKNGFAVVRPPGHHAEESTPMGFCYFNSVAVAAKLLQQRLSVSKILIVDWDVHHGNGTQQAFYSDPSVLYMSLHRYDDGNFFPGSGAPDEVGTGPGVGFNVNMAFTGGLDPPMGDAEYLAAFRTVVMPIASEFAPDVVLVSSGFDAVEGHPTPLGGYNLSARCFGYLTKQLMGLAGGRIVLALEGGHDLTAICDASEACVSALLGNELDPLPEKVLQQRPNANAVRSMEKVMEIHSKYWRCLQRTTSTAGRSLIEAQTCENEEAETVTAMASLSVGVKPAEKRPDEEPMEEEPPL

[3] = target: T2, Class 1 histone deacetylase (Homo sapiens, UniProt Q13547+O15379+Q92769+Q9BY41); experiment: Inhibition of Class 1 histone deacetylase in human THP-1 cells using Ac-LGK(Ac)-AMC as substrate incubated for 3 hrs followed by 50 uM SAHA addition and measured after 1 hr by fluorescence based assay; type: cell-based
Macrophage [4] = experiment: Antiinflammatory activity in human monocytes-derived macrophages assessed as inhibition of LPS-induced CCL2 secretion at 30 uM pretreated for 1 hr followed by LPS stimulation and measured after 24 hrs by homogenous time-resolved fluorescence assay; type: functional, cell-based; conditions: time 25.0 hrs
Macrophage [5] = experiment: Antiinflammatory activity in human monocytes-derived macrophages assessed as inhibition of LPS-induced IL-12p40 secretion at 30 uM pretreated for 1 hr followed by LPS stimulation and measured after 24 hrs by homogenous time-resolved fluorescence assay; type: functional, cell-based; conditions: time 25.0 hrs
[6] = target: T2, Class 1 histone deacetylase; experiment: Inhibition of Class 1 histone deacetylase in human THP-1 cells assessed as accumulation of Histone H4 acetylation levels at 1 to 10 uM incubated for 3 hrs by western blot analysis; type: cell-based; conditions: dose 1-10 µM
Histone deacetylase 8 = target: T3, Histone deacetylase 8 (Homo sapiens, UniProt Q9BY41); experiment: Inhibition of recombinant human HDAC8 using Ac-LGK(TFA)-AMC as substrate preincubated for 30 mins followed by substrate addition and measured after 90 mins by fluorescence based assay
T3 sequence (Q9BY41 whole entry): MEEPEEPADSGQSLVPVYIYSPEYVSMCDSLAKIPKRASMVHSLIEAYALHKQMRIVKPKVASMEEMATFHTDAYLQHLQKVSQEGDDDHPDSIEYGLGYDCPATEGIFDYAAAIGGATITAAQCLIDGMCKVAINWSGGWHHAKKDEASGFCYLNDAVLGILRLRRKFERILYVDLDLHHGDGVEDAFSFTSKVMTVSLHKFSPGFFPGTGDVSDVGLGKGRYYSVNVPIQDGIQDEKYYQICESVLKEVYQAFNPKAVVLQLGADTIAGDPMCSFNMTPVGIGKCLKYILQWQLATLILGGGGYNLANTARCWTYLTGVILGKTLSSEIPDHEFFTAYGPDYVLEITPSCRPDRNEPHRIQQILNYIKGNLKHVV

Macrophage [7] = experiment: Antiinflammatory activity in human monocytes-derived macrophages assessed as inhibition of LPS-induced IL-6 secretion at 30 uM pretreated for 1 hr followed by LPS stimulation and measured after 24 hrs by homogenous time-resolved fluorescence assay; type: functional, cell-based; conditions: time 25.0 hrs
Macrophage [8] = experiment: Antiinflammatory activity in human monocytes-derived macrophages assessed as inhibition of LPS-induced IL-23 secretion at 30 uM pretreated for 1 hr followed by LPS stimulation and measured after 24 hrs by homogenous time-resolved fluorescence assay; type: functional, cell-based; conditions: time 25.0 hrs
Macrophage [9] = experiment: Antiinflammatory activity in human monocytes-derived macrophages assessed as inhibition of LPS-induced IL-1alpha secretion at 30 uM pretreated for 1 hr followed by LPS stimulation and measured after 24 hrs by homogenous time-resolved fluorescence assay; type: functional, cell-based; conditions: time 25.0 hrs
[10] = target: T4, Protein deacetylase HDAC6 (Homo sapiens, UniProt Q9UBN7); experiment: Inhibition of recombinant human HDAC6 using Boc-Lys(Ac)-AMC as substrate pre-incubated for 15 mins followed by substrate addition and measured after 60 mins by fluorescence based assay
T4 sequence (Q9UBN7 whole entry): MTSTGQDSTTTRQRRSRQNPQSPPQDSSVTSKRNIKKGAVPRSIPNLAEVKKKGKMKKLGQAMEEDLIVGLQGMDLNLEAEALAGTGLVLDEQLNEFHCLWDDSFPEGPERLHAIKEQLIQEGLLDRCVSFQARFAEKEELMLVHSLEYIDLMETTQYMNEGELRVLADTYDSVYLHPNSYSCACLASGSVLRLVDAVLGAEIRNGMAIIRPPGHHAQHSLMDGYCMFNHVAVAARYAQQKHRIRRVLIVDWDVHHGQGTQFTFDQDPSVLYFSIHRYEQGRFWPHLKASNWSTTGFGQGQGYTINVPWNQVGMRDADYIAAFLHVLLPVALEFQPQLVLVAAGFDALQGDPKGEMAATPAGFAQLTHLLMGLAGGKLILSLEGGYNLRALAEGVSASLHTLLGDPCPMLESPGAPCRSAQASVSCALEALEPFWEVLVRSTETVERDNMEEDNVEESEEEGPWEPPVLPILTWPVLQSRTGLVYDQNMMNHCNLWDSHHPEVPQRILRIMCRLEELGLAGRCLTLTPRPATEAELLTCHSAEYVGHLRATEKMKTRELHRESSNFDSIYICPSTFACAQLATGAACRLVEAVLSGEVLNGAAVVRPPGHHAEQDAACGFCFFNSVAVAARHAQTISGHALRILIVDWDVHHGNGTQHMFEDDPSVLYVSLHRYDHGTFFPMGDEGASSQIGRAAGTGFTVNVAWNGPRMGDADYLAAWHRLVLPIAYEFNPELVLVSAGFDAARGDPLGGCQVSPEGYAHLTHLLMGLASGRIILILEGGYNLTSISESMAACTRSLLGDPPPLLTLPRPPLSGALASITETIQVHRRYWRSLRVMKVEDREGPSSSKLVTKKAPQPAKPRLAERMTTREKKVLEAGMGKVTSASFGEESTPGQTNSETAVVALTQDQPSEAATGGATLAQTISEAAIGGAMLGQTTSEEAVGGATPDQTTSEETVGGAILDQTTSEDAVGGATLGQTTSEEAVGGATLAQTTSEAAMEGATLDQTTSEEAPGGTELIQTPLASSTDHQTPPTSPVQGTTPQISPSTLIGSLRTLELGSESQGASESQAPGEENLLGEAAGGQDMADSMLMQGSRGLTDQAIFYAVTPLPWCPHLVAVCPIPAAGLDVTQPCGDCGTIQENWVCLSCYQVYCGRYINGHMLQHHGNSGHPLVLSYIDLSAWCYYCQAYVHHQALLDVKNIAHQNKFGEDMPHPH

[11] = Inhibition of Class 2a histone deacetylase in human THP-1 cells using Ac-LGK(TFA)-AMC as substrate incubated for 3 hrs followed by 50 uM SAHA addition and measured after 1 hr by fluorescence based assay; type: cell-based
Histone deacetylase 9 = Histone deacetylase 9 (Homo sapiens, UniProt Q9UKV0); experiment: Inhibition of recombinant human HDAC9 using Ac-LGK(TFA)-AMC as substrate preincubated for 15 mins followed by substrate addition and measured after 60 mins by fluorescence based assay
Chain of Histone deacetylase 9 (Q9UKV0 whole entry): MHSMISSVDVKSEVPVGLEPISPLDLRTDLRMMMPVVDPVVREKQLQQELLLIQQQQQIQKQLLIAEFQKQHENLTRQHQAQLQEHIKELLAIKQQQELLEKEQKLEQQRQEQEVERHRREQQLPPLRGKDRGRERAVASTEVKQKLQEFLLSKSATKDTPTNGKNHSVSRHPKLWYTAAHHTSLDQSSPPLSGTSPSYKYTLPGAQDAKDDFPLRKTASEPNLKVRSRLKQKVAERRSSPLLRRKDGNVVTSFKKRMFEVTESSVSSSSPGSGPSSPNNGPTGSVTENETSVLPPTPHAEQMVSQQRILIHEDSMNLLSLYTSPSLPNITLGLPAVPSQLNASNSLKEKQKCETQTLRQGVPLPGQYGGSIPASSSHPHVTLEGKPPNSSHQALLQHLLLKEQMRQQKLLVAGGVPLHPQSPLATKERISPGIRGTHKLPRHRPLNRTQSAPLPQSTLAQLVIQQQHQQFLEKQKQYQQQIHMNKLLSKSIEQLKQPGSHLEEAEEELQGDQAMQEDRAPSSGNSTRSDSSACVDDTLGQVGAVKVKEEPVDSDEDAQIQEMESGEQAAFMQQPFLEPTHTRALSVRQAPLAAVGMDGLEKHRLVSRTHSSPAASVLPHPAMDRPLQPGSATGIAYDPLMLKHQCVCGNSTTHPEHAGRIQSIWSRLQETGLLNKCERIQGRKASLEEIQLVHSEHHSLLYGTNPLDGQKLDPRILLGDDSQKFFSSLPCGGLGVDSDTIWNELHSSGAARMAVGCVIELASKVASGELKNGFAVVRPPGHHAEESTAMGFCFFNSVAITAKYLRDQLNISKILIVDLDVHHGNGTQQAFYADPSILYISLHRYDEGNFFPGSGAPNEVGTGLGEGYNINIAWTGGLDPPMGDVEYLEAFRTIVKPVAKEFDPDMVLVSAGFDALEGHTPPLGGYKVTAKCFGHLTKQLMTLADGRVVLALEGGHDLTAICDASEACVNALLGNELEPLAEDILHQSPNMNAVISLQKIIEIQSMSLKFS

Macrophage [12] = experiment: Antiinflammatory activity in human monocytes-derived macrophages assessed as inhibition of LPS-induced GM-CSF secretion at 30 uM pretreated for 1 hr followed by LPS stimulation and measured after 24 hrs by homogenous time-resolved fluorescence assay; type: functional, cell-based; conditions: time 25.0 hrs
Histone deacetylase 5 = Histone deacetylase 5 (Homo sapiens, UniProt Q9UQL6); experiment: Inhibition of recombinant human HDAC5 using Ac-LGK(TFA)-AMC as substrate pre-incubated for 15 mins followed by substrate addition and measured after 60 mins by fluorescence based assay
Chain of Histone deacetylase 5 (Q9UQL6 whole entry): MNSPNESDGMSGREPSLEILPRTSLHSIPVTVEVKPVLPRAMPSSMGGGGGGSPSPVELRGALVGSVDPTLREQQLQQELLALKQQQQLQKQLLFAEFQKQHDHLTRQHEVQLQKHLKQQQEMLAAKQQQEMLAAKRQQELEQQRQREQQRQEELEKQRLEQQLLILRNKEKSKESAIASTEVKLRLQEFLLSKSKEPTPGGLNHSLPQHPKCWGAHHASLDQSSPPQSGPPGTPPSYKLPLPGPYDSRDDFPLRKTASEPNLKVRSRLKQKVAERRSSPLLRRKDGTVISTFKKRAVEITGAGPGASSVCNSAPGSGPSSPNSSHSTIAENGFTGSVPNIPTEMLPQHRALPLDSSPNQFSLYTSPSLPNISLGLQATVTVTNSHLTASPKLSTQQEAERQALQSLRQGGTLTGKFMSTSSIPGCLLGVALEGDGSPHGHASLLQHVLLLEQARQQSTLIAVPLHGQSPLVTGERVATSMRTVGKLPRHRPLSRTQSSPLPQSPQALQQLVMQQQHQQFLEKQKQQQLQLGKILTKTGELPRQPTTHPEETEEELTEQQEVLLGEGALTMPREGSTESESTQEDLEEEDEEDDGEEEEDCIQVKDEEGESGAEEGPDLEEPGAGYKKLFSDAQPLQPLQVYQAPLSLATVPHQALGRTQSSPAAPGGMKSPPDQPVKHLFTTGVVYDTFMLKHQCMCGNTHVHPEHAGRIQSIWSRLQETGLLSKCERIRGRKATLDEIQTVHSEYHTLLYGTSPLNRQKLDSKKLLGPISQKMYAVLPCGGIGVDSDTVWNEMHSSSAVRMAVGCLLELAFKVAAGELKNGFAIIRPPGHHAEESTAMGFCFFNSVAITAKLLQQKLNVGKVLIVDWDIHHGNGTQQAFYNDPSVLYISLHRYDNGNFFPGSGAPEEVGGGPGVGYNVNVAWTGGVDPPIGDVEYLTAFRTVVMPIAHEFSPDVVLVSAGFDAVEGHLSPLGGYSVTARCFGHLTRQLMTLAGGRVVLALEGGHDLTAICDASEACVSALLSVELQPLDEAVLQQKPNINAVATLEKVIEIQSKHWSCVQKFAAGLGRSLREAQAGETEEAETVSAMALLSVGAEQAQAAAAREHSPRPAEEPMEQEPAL

[13] = Metabolic stability in Sprague-Dawley rat liver microsomes assessed as half life at 20 uM preincubated for 5 mins followed by NADPH addition and measured after 60 mins by LCMS analysis; type: ADME, Microsome; conditions: time 65 min

## COc1ccc(CC(=O)NCCCCC(C(=O)NO)c2ccccc2)cc1 (configuration not stated)
Histone deacetylase 7
  IC50: 1.7 µM
Histone deacetylase 1
  IC50: 10 µM

## O=C(NCCCCC(C(=O)NO)c1ccccc1)c1ccccc1O (configuration not stated)
Histone deacetylase 7
  IC50: 1.9 µM
Histone deacetylase 1
  IC50: > 10 µM

## O=C(NO)C(OCCCN1C(=O)c2ccccc2C1=O)c1ccccc1 (configuration not stated)
Histone deacetylase 7
  IC50: 1.1 µM

## O=C(NO)[C@H](CCCCN1C(=O)c2ccccc2C1=O)c1ccccc1
Histone deacetylase 1
  IC50: 20 µM

## Cc1ccc(C(=O)NO)c(-c2ccccc2)c1
Histone deacetylase 1
  IC50: > 100 µM

## O=C(NO)C(OCCCN1C(=O)c2ccccc2C1=O)c1cccc(Cl)c1 (configuration not stated)
Histone deacetylase 7
  IC50: 1.1 µM

## O=C(NO)c1ccc(CN2C(=O)c3ccccc3C2=O)cc1
Histone deacetylase 1
  IC50: 0.17 µM

## O=C(CCCCCCC(=O)Nc1ccccc1)NO [VORINOSTAT]
[1]
  half-life at 5 µM: 3.3 h

## O=C(NCc1ccc(C(=O)NO)c(-c2ccccc2)c1)c1ccccc1F
Histone deacetylase 1
  IC50: 39 µM

## O=C(NO)c1ccc(CN2C(=O)c3cccnc3C2=O)cc1-c1ccccc1
Histone deacetylase 1
  IC50: > 100 µM

## O=C(NO)[C@@H](CCCCN1C(=O)c2ccccc2C1=O)c1ccccc1
Histone deacetylase 1
  IC50: 19 µM

## O=C(NO)c1ccc(CN2C(=O)CCC2=O)cc1-c1ccccc1
Histone deacetylase 1
  IC50: > 100 µM

## O=C(NO)C(CCCCN1C(=O)c2ccccc2C1=O)c1ccccc1 (configuration not stated)
Histone deacetylase 1
  IC50: 26 µM
[1]
  half-life at 5 µM: 0.533 h

## O=C(NO)c1ccc(CN2C(=O)c3ccccc3S2(=O)=O)cc1-c1ccccc1
[2]
  solubility: Soluble
Histone deacetylase 4
  IC50: 0.049 µM
[3]
  IC50: > 30 µM
Macrophage [4]
  Activity: Active
Macrophage [5]
  Activity: inactive
[6]
  inhibition: inactive
Histone deacetylase 8
  IC50: 0.071 µM
Macrophage [7]
  Activity: Active
Macrophage [8]
  Activity: Active
Macrophage [9]
  Activity: Active
[10]
  IC50: 5.3 µM
[11]
  IC50: 0.3 µM
Histone deacetylase 9
  IC50: 0.038 µM
[1]
  half-life at 5 µM: 3.83 h
Macrophage [12]
  Activity: Active

## O=C(NO)c1ccc(CN2Cc3ccccc3C2=O)cc1-c1ccccc1
Histone deacetylase 1
  IC50: 10 µM
[1]
  half-life at 5 µM: 2.82 h

## CC(C)(CNC(=O)c1cccc(-c2noc(C(F)(F)F)n2)c1)c1coc(-c2ccccc2)n1
Histone deacetylase 4
  IC50: 0.354 µM
[3]
  IC50: > 30 µM
Macrophage [4]
  Activity: Active
Histone deacetylase 5
  IC50: 0.216 µM
Macrophage [5]
  Activity: inactive
[6]
  inhibition: inactive
Histone deacetylase 8
  IC50: 2.1 µM
Macrophage [7]
  Activity: Active
Macrophage [8]
  Activity: Active
Macrophage [9]
  Activity: Active
Histone deacetylase 1
  IC50: 45 µM
[13]
  half-life at 20 µM: 0.767 h
[11]
  IC50: 3 µM
Histone deacetylase 9
  IC50: 0.016 µM
Macrophage [12]
  Activity: Active

## O=C(NO)c1ccc(CN2C(=O)c3cccc(F)c3C2=O)cc1-c1ccccc1
[2]
  solubility: Insoluble
[3]
  IC50: > 30 µM
Histone deacetylase 8
  IC50: 0.088 µM
[10]
  IC50: 4.2 µM
[11]
  IC50: 0.3 µM
Histone deacetylase 9
  IC50: 0.046 µM
[1]
  half-life at 5 µM: 8.08 h

## O=C(O)c1ccccc1C(=O)NCc1ccc(C(=O)NO)c(-c2ccccc2)c1
Histone deacetylase 1
  IC50: > 100 µM

## O=C(O)c1cccc(C(CCCCN2C(=O)c3ccccc3C2=O)C(=O)NO)c1 (configuration not stated)
Histone deacetylase 7
  IC50: 1.4 µM
Histone deacetylase 1
  IC50: 1.4 µM

## O=C(NO)c1ccc(CN2C(=O)c3ccccc3C2=O)cc1-c1ccccc1
[2]
  solubility: Insoluble
[3]
  IC50: > 30 µM
Histone deacetylase 8
  IC50: 0.072 µM
[10]
  IC50: 6.4 µM
[11]
  IC50: 0.3 µM
Histone deacetylase 9
  IC50: 0.02 µM
[1]
  half-life at 5 µM: 0.917 h

## CC(C)[C@H](C(=O)Nc1ccc(C(=O)NO)cc1)c1ccccc1
[6]
  inhibition: Active

## O=C(NO)c1ccc(CN2C(=O)c3ccncc3C2=O)cc1-c1ccccc1
Histone deacetylase 1
  IC50: > 100 µM

Reference: ChEMBL document CHEMBL4732198, “HDAC7 Inhibition by Phenacetyl and Phenylbenzoyl Hydroxamates” (J Med Chem, 2021)
